From PMC9026172, “Pharmacodynamics, Network Pharmacology, and Pharmacokinetics of Chinese Medicine Formula 9002A in the Treatment of Alzheimer’s Disease” (Frontiers in Pharmacology, 2022)
Where two headings read alike, the source gives them in different places.

Tests used:
[1] = test system: Aβ deposition and glial cell activation in the brain; set-up: method as in Hu et al. (2014); settings: transgenic mice; ref Hu et al. (2014); cited from earlier work
[2] = Absorbed constituents and pharmacokinetics in rat plasma after Formula 9002A (UPLC-QTof-MS); settings: for half-life: SD, rat; for Fold increase of mean residence time after Formula 9002A vs monomer: vs administration of a monomer; for Fold increase of half-life after Formula 9002A vs monomer: vs intragastric or intravenous monomer from literature
Experimental: The supernatant were obtained and concentrated, then dissolved with 50% methanol–water at 4°C for LC-MS/MS analysis.
Waters Xevo G2-XS QTof-MS and Masslynx software were used to acquire LC-MS/MS raw data. Chromatographic separation on the Waters Acquity UPLC HSS T3 column was performed on the samples. The mobile phases consisted of (A) 0.1% formic acid in water and (B) acetonitrile. […] The flow rate was set at 0.3 ml/min. The temperatures of the column and the auto sampler were maintained at 40 and 4°C, respectively. The injection volume was 5 μl.
MS conditions: positive and negative ion electrospray modes were both used. Capillary voltages were set at 3 kV for the positive mode and 2.5 kV for the negative mode. Source temperature was set as 100 °C. Nitrogen was used as the nebulizer and auxiliary gas; flow rates and temperature of desolvation gas were 1,000 L/h and 400°C, respectively. The range of data acquisition was from 50 to 1,000 m/z, and the scan time was set to 0.2 s. MS^E analysis was performed with 6 eV for the low collision energy scan and 35 eV for the high collision energy scan.
The absorbed components were identified by the exact molecular mass, molecular formula, and MS^2 fragment data compared with the standard substances and literature data. The DAS 3.3.0 software was used for calculating the terminal elimination half-life (t1/2) and mean residence time (MRT).

[3] = test system: 3xTg AD mice; set-up: method as in Liu et al., 2013; settings: after 8 months of treatment; ref Liu et al., 2013; cited from earlier work
[4] = test system: tight junction proteins (such as claudin-5 and occludin); set-up: method as in Gibson et al., 2014; settings: by inhibiting the activation of MMP-9; ref Gibson et al., 2014; cited from earlier work
[5] = set-up: method as in Naseri-Nosar and Ziora, 2018; settings: ref Naseri-Nosar and Ziora, 2018, cited from earlier work
[6] = test system: Nrf2 and HO-1; set-up: method as in Hindam et al., 2014; settings: streptozotocin-induced cognitive dysfunction; ref Hindam et al., 2014; cited from earlier work

## OCc1ccc(O[C@@H]2O[C@H](CO)[C@@H](O)[C@H](O)[C@H]2O)cc1 [gastrodin]
[1]
  Aβ deposition and glial cell activation in the brain: significantly reduce Aβ deposition and glial cell activation
[2]; in vivo
  half-life: 2.58 h
[2]; plasma
  Fold increase of mean residence time after Formula 9002A vs monomer: ~2 fold
  Fold increase of half-life after Formula 9002A vs monomer: ~2 fold

## NC(=O)c1cccnc1 [niacinamide]
[3]
  Cognitive function: could be improved

## OC[C@H]1O[C@@H](OCCc2ccc(O)cc2)[C@H](O)[C@@H](O)[C@@H]1O [salidroside]
[4]
  Tight junction proteins / BBB damage: reversed the decrease in tight junction proteins
[2]; plasma
  half-life: 2.12 h
  Fold increase of mean residence time after Formula 9002A vs monomer: ~2 fold
  Fold increase of half-life after Formula 9002A vs monomer: 2- to 3 fold
[5]; gavage of salidroside monomer
  half-life: 0.64 h
[5]; intravenous injection of salidroside monomer
  half-life: 1.16 h

## O=c1ccc2ccc(O)cc2o1 [umbelliferone]
[6]
  Content of Nrf2 and HO-1: significantly increase
